Experimental findings from publication PMC12430443, “Discovery of Novel Benzamide-Based Sigma-1 Receptor Agonists with Enhanced Selectivity and Safety” (Molecules, 2025) are described below.

Series [1] can be described thus: Cytotoxicity, MTT/MTS assay. In kind it is cell-based, human. The conditions noted are these: human, SH-SY5Y neuroblastoma cells; percentage of cell death after 24 h treatment at 100 µM (duplicate); read-out: SY5Y % Cytotox. The procedure: (§1) To assess potential cytotoxicity in CNS-relevant cells, human neuroblastoma (SH-SY5Y) cells were exposed to compounds 2–7 at concentrations up to 100 μM. Cell viability was measured using the MTT assay.
(§2) Cytotoxicity was assessed in human SH-SY5Y neuroblastoma cells cultured in Dulbecco’s Modified Eagle Medium (DMEM, Gibco, Thermo Fisher Scientific Inc., Waltham, MA, USA) supplemented with 2 mM L-glutamine, 100 μg/mL streptomycin, 100 IU/mL penicillin, 1 mM non-essential amino acids (all from Invitrogen, Thermo Fisher Scientific Inc., Waltham, MA, USA), and 10% (v/v) heat-inactivated fetal bovine serum (Sigma-Aldrich, Burlington, MA, USA). Cells were maintained at 37 °C in a humidified 5% CO2 atmosphere and serum-starved for 24 h to synchronize cultures before treatment with the test compounds at final concentrations of 100, 50, 10, 5, 1, 0.5, 0.1, or 0.05 μM (all in <0.1% DMSO). […] Absorbance was measured at 490 nm, and the results were expressed as a percentage relative to untreated control cells (set at 100%).

In series [2] the test system is SH-SY5Y neuroblastoma cells. Kind of series: Cytotoxicity, MTT/MTS assay. In kind it is cell-based, human. The conditions noted are these: selectivity index; IC50 was considered > 100 µM. As for the experimental part: as §1, §2
In general terms: Tetrazolium assays rely on reduction of a dye to a coloured formazan, in cell work by metabolically active cells.

A further series in a line: Microsomal stability. The class given is in vitro ADME. The conditions noted are these: human, liver microsomes. The procedure: (§3) Microsomal stability was evaluated using human liver microsomes at 10 µM (Table 3). […] Since cytochrome P450 (CYP) enzymes—especially families 1 to 3—play major roles in drug metabolism, CYP inhibition was tested against the human isoforms CYP1A, 2B6, 2C8, 2C9, 2C19, 2D6, and 3A, as recommended by FDA and EMA guidelines. […] Membrane transport proteins, including the ATP-binding cassette (ABC) and solute carrier (SLC) families, affect drug pharmacokinetics and potential drug–drug interactions. The inhibitory effects of compounds 2 and 6 were assessed against five ABC transporters (P-gp, BCRP, MRP1, MRP2, and MRP3) and seven SLC transporters (OAT1, OAT3, OATP1B1, OCT1, OCT2, ASBT, and NTCP).
(Liver microsomes are vesicles of endoplasmic reticulum, rich in cytochrome P450 enzymes.)

In a further series the target is ABST (Homo sapiens, UniProt Q12908). Description: Transporter inhibition in overexpressing cell lines. In kind it is in vitro ADME. The conditions noted are these: SLC family, n = 2, read-out: Drug transport inhibition ABST. As for the experimental part: as §3
(§4) Standardized in vitro ADME experiments were performed by Eurofins Cerep (Poitiers, France). Solubility assays were performed in PBS at pH 7.4, but also in simulated gastric fluid (SGF) and intestinal fluid (SIF), through the classical shake-flask method described by Lipinski et al., using HPLC-UV/VIS technology. The results were expressed in µM. The compound was classically evaluated at 10 µM for all of the ADME analyses. Bidirectional permeability (apical A to basolateral B pH 6.5/7.4, and basolateral B to apical A pH 7.4/6.5) was assessed in the epithelial colorectal adenocarcinoma cell line (Caco-2 cell line). The results were expressed as ×10^−6 cm/s (Papp) and as % recovery. The efflux ratio, i.e., Papp (B→A)/Papp(A→B), was calculated. Plasma protein binding was analyzed by HPLC-MS/MS after 4 h of incubation at 37 °C, as described by Banker et al.. Concentration was evaluated by LC/MS-MS. CYP inhibition was performed in human liver microsomes as described in [28]. Analysis of the respective metabolites was performed by HPLC-MS/MS. Transporter inhibition analysis was also performed in overexpressing cell lines. Respective metabolites for each specific transporter substrate were analyzed by fluorometry or scintillation counting, and % inhibition of control values were calculated. P-glycoprotein transporter substrate assessment was performed by bidirectional permeability analysis (apical A to basolateral B pH 7.4/7.4, and basolateral B to apical A pH 7.4/7.4) in the Caco-2 cell line with and without verapamil, as described in [26]. The results were expressed as ×10^−6 cm/s (Papp) and as % recovery. The efflux ratio was calculated as Papp(B→A)/Papp(A→B). CYP450 induction was assessed in human hepatocytes by measuring the mRNA levels of seven CYP isoforms via qPCR, as described in [40]. The compound was tested at 1, 10, and 100 μM, and fold-induction values were compared with predefined cut-off thresholds for each isoform and hepatocyte lot.

For the next series, the target named is MRP3 (Homo sapiens, UniProt O15438). The series is described as above. The class given is in vitro ADME. The conditions noted are these: ABC family, n = 2, read-out: Drug transport inhibition MRP3. As for the experimental part: as §3, §4
For the next series, the target named is OAT1 (Homo sapiens, UniProt Q4U2R8). Described as above. The class given is in vitro ADME. The conditions noted are these: SLC family, n = 2, read-out: Drug transport inhibition OAT1. As for the experimental part:
as §3, §4

For a further series, the target named is OAT3 (Homo sapiens, UniProt Q8TCC7). Described as above. In kind it is in vitro ADME. The settings on record: SLC family, n = 2, read-out: Drug transport inhibition OAT3. The procedure:
as §3, §4

In the next series the target is OATP1B1 (Homo sapiens, UniProt Q9Y6L6). The series is described as above. The class given is in vitro ADME. The settings on record: SLC family, n = 2, read-out: Drug transport inhibition OATP1B1. The procedure:
as §3, §4

For a further series, the target named is OCT1 (Homo sapiens, UniProt O15245). The series is described as above. In kind it is in vitro ADME. The conditions noted are these: SLC family, n = 2, read-out: Drug transport inhibition OCT1. The procedure:
as §3, §4

The target of a further series is T1, hERG channel (Homo sapiens, UniProt Q12809).
T1 construct: host or cells: CHO-K1
Kind of series: hERG automated whole-cell patch-clamp in hERG CHO-K1 cells. In kind it is cell-based. The settings on record: for hERG inhibition IC50 / pIC50: tail current, hERG CHO-K1 cells, 0.1 to 10 µM, n = 2; for pIC50: read-out: hERG inhibition IC50. The procedure: Cardiac toxicity is a leading cause of drug development failure. Early safety profiling includes evaluation of the potassium voltage-gated channel subfamily H member 2 (KCNH2 or hERG) channel, the only in vitro assay mandated by regulatory agencies to predict proarrhythmic risk. […] Importantly, an IC50 (hERG)/Ki (σ1) ratio exceeding 100 is advised for cardiac safety; all compounds met this criterion.
Cardiotoxicity analysis was performed by Eurofins Cerep (Poitiers, France) as described in [41]. Rapidly, hERG CHO-K1 cells were used to perform automated whole-cell patch-clamp. Compounds were evaluated in duplicate from 0.1 to 10 µM. The degree of inhibition (%) was determined by measuring the tail current amplitude, which was induced by a one-second test pulse to −40 mV after a two-second pulse to +20 mV, before and after drug incubation for 5 min at room temperature. After normalization, activities were expressed as the % inhibition of tail current. […] The concentration–response relationship of each compound was constructed from the percentage reductions in current amplitude by sequential concentrations.

[3] abbreviates: n = 2, read-out: Human liver microsome intrinsic clearance.

pIC50: −log10 of the molar value. Like-named read-outs stand apart in the source and are kept apart here.

T1 sequence (Q12809 whole entry): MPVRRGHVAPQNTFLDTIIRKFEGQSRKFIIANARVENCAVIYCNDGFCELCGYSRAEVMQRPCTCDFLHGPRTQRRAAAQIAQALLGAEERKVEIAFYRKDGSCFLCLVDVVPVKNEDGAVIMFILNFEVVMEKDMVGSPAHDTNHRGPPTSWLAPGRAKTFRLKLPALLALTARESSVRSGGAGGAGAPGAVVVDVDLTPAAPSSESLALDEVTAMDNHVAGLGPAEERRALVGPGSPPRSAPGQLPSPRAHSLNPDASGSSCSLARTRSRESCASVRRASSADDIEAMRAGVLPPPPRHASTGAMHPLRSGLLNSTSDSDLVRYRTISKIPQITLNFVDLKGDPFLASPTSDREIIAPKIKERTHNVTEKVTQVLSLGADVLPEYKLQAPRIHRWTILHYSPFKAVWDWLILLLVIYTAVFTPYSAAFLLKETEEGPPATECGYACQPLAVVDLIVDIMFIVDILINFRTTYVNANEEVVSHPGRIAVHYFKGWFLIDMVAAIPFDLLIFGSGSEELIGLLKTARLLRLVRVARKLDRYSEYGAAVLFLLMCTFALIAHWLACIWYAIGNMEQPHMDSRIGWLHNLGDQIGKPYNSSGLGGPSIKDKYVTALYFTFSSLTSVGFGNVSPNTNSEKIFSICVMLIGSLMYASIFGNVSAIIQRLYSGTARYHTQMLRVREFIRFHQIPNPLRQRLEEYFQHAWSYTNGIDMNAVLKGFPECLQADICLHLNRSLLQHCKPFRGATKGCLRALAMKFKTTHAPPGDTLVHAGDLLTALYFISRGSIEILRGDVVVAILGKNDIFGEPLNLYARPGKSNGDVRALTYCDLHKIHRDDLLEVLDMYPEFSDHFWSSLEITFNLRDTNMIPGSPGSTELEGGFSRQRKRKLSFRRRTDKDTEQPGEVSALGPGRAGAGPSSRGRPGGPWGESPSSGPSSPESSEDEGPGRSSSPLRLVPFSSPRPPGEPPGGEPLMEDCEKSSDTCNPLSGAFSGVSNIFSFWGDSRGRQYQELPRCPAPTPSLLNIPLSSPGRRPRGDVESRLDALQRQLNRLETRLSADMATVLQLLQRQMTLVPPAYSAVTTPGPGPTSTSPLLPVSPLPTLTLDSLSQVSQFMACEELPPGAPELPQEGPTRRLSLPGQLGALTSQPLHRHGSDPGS
OAT1, sequence (Q4U2R8 whole entry): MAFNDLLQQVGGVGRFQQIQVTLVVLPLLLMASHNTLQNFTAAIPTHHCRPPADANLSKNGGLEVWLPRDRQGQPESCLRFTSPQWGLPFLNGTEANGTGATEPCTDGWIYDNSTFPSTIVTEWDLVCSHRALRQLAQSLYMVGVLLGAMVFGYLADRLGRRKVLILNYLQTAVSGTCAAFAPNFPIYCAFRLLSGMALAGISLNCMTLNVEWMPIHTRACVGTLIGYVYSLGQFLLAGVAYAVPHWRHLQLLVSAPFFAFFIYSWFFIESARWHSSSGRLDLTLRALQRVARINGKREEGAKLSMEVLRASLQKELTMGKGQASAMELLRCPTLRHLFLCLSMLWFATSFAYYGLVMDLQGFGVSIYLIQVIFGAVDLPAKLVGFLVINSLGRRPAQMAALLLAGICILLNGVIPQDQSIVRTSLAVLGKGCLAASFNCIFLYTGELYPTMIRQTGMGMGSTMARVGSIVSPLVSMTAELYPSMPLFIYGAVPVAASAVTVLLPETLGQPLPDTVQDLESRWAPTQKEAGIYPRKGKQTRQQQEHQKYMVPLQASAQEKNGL
OATP1B1, sequence (Q9Y6L6 whole entry): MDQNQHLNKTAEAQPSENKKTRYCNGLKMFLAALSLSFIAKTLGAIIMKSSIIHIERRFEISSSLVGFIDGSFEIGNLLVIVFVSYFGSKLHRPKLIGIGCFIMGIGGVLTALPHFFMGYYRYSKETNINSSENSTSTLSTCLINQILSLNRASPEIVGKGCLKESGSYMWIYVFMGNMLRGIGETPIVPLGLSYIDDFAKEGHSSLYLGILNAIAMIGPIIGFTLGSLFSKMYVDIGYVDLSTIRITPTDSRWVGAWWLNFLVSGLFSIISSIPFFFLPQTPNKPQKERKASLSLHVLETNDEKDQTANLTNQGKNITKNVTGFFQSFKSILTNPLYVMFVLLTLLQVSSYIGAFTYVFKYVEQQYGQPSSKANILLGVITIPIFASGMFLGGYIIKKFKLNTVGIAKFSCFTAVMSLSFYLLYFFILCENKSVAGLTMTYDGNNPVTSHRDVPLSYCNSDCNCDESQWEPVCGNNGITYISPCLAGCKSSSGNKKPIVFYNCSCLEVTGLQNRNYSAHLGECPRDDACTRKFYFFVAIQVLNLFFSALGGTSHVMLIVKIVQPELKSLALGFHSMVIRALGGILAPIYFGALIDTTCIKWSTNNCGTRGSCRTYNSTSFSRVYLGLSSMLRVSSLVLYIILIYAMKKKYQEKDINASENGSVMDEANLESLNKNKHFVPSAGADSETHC
MRP3, sequence (O15438 whole entry): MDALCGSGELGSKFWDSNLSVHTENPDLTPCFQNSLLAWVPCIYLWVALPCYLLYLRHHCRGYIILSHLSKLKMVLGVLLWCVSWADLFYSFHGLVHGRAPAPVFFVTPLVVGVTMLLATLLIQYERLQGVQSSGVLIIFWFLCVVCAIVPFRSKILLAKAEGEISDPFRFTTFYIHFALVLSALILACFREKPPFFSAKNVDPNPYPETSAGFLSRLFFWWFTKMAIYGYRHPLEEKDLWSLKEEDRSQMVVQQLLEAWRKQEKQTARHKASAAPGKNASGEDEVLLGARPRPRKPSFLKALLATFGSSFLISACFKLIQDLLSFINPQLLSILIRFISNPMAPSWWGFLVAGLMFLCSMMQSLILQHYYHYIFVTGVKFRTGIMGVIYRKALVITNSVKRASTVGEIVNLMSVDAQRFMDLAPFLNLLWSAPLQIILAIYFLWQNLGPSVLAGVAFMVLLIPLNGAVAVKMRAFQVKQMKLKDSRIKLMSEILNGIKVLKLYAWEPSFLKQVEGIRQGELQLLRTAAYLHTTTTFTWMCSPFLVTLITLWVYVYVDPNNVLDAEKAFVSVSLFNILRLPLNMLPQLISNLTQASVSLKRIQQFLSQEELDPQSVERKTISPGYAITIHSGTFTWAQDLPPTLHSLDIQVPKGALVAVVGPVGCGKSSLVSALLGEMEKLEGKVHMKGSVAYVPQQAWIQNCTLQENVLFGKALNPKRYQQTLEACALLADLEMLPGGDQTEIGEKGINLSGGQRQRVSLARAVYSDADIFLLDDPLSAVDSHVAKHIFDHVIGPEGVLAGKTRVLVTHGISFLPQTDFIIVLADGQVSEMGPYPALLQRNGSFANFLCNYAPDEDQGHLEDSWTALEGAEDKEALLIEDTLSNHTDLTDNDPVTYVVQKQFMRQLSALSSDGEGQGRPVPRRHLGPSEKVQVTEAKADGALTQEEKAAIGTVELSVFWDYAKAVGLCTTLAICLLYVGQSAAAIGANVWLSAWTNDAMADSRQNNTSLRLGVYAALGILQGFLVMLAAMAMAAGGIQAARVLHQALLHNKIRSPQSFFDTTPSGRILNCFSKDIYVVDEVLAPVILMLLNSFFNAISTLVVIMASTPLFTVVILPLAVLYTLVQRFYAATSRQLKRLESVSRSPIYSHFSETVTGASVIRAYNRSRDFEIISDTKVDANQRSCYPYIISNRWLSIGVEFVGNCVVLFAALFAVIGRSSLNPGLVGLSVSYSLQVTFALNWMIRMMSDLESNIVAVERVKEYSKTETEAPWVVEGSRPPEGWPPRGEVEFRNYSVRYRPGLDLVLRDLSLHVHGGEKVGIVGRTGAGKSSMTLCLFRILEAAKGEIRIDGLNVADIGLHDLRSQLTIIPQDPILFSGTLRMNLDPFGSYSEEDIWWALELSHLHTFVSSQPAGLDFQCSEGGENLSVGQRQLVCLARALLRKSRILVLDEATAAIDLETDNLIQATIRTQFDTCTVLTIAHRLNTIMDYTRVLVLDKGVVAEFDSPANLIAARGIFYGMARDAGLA
OCT1, sequence (O15245 whole entry): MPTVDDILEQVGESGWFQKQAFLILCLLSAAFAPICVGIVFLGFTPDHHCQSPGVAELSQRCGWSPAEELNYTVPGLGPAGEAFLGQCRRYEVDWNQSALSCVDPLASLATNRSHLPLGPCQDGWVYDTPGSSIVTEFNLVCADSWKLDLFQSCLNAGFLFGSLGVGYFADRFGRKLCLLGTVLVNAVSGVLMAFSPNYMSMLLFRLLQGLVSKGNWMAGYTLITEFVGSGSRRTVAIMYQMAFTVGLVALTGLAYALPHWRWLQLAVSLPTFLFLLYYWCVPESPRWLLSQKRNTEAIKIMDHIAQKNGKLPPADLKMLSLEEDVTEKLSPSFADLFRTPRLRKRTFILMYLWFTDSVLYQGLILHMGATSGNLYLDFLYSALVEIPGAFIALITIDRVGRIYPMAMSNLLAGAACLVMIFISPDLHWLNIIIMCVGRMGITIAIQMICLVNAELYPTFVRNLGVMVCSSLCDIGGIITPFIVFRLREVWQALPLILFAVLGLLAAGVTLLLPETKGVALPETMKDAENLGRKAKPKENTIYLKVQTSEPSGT
ABST, sequence (Q12908 whole entry): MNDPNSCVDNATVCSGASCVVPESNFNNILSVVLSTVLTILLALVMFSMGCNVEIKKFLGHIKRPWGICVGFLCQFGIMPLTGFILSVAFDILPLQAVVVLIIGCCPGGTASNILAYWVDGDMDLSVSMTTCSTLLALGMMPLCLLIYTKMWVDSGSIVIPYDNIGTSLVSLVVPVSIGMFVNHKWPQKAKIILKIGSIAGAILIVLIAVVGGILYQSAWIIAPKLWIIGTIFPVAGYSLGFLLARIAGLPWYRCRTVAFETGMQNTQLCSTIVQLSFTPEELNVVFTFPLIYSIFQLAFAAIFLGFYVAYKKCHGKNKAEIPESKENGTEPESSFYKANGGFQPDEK

Regarding `CN(CCC(=O)NCc1ccc(C#N)cc1)Cc1ccccc1` [Compound 6, 3-(Benzylmethylamino)-N-(4-cyanobenzyl)propanamide], the cytotoxicity at 24 h, 100 µM in series [1] amounted to 8%. Moreover, the “IC50 (SY5Y)/ Ki (S1R)” value in series [2] is on record as >17,857. Further, the half-life at 10 µM in the series “Microsomal stability” (as in running text, read-out: Human liver microsome half-life) was > 1 h; in “Microsomal stability” (n = 2, read-out: Human liver microsome half-life t1/2), > 1 h. The microsomal CLint at 10 µM is < 116 µL/min/mg in “Microsomal stability” (setting [3]) and < 115 µL/min/mg in “Microsomal stability” (read-out: Human liver microsome clearance). The inhibition at 10 µM on ABST is -8.9%; on MRP3, 0.4%; on OAT1, -25.8%; on OAT3, 27.8%; on OATP1B1 it was 1.3%; at OCT1 it was 2.4%. On hERG channel (ratio), the “IC50 (hERG)/Ki (σ1)” value was 143. Besides, the “hERG inhibition IC50” value at hERG channel is given as “micromolar range”. Moreover, the pIC50 on hERG channel is 6.10.

Consider `CN(CCC(=O)NCc1cccc(Cl)c1)Cc1ccccc1` [Compound 2, 3-(Benzylmethylamino)-N-(3-chlorobenzyl)propanamide], for which, in [1], the cytotoxicity at 24 h, 100 µM came to 12%. The “IC50 (SY5Y)/ Ki (S1R)” value in series [2] is >166,666. Besides, in “Microsomal stability” (setting [3]), the microsomal CLint at 10 µM is 135 µL/min/mg. Also, the inhibition at 10 µM was 21.8% at ABST; 0.7% at MRP3; -23.1% on OAT1; 33.3% on OAT3; 3.9% at OATP1B1; 19.9% on OCT1. In addition, the “hERG inhibition IC50” value at hERG channel is “micromolar range”. Besides, the pIC50 at hERG channel is 5.17.

One may read the inhibition as the drop in the measured response relative to a control, in per cent. A word on the pIC50: it is the IC50 on a negative log10 scale, so that one unit is a factor of ten.
